pKi: −log10 of the molar value.

The experiment has as its target Ras-related protein Rab-2A (Canis lupus familiaris, UniProt P61105). Description: Rab2 wildtype GTP-binding inhibitors, SAR follow-up, biochemical, additional analogs, bead-based flow cytometry, multiplex (AID 2046). For orientation: Flow cytometry measures light scatter and fluorescence of single cells or particles in a stream.

Chain of Ras-related protein Rab-2A (P61105 whole entry): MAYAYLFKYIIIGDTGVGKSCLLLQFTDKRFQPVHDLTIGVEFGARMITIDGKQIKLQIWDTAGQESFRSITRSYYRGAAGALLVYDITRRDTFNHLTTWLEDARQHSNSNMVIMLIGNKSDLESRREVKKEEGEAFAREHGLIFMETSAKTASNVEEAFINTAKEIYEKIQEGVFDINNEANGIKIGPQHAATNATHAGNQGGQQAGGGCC

In general, pKi refers to the negative decadic logarithm of the Ki, by convention in mol/L. Read a low pKi as a large Ki. For the compound `O=C1N=c2ccc(Br)cc2=C1c1[nH]c2ccccc2c1NO` [5-bromanyl-3-[3-(oxidanylamino)-1H-indol-2-yl]indol-2-one], the negative logarithm of the Ki (pKi) is 5.38. Consider `O=C1N=c2c(Br)cccc2=C1c1[nH]c2ccccc2c1NO` [7-bromanyl-3-[3-(oxidanylamino)-1H-indol-2-yl]indol-2-one], for which the negative-log Ki (pKi) is 5.38.

Source of the values: BindingDB's records for doi:10.7270/Q2QC01XF (Nmmlsc, 2009).
